Results taken from publication PMC7503981, “Plant Nitrilase Homologues in Fungi: Phylogenetic and Functional Analysis with Focus on Nitrilases in Trametes versicolor and Agaricus bisporus” (Molecules, 2020).

How the values were obtained:
[1] = target: T1, NitTv1 (Trametes versicolor, UniProt P9WEU6); test: spectrophotometric ammonia assay; […] substrate; type: biochemical; details: read-out: Substrate β-CA / Vmax [U mg^-1 rotein)] KM (mM) / NLase Activity ^2; NLase (Asp + ammonia forming) activity; no asparaginase added for NLase activity; 50 mM Tris/HCl, 150 mM NaCl, pH 8.0, 30 °C
T1 construct: gene nit; catalytic tetrad E46, K133, E140, C178

[2] = test system: T2, NitAb; test: spectrophotometric ammonia assay; […] substrate; type: biochemical, Agaricus bisporus; details: NLase (Asp + ammonia forming) activity; no asparaginase added for NLase activity; 50 mM Tris/HCl, 150 mM NaCl, pH 8.0, 30 °C; read-out: Substrate β-CA / Vmax [U mg^-1 rotein)] KM (mM) / NLase Activity ^2
T2 construct: catalytic tetrad E45, K157, E164, C195

T1 sequence (P9WEU6 whole entry): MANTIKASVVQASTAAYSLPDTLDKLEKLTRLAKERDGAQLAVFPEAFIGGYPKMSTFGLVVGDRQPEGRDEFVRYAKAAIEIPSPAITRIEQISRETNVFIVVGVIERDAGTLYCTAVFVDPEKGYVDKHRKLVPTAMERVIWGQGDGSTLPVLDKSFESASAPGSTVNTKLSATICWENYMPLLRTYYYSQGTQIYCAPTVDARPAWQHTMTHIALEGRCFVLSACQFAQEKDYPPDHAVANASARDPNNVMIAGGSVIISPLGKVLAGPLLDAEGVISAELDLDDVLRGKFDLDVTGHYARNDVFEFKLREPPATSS

SMILES: N#CC[C@H](N)C(=O)O [β-CA, β-cyano-L-alanine]
- Km [1]: 7.72 ± 1.82 mM
- Km [2]: 7.38 ± 1.4 mM
